Here are results for 2 compounds from patent US6133311A, “Method for preventing or treating elevated blood lipid level-related diseases by administering natural phenolic compounds” (priority 1998, dated 2000).

In data set [1] the test system is liver cells around the central vein. As to the kind of experiment: fatty liver: proportion of abnormal fat-containing cells in the liver of rabbits. It counts as in vivo, New Zealand White rabbits. Particulars: 6 weeks; for A: Proportion of abnormal fat-containing liver cells (grade): 1% cholesterol diet plus 0.1% compound (Lovastatin 1 mg/kg), mean of grades 1+ to 4+, Control 3.2 ± 0.3; for inhibition of the formation of fatty liver: 1% cholesterol diet. As to the method:
(§1) 30 three-month-old male New Zealand White rabbits (Yeonam Horticulture and Animal Husbandry College, Korea), each weighing about 2.5 to 2.6 kg, were raised under a condition of temperature 20+2° C., relative humidity 55±5%, and photoperiod 12L/12D. The rabbits were divided into 5 groups and 5 groups of rabbits were fed with 5 different diets, i.e., RC4 diet (Oriental Yeast Co., Japan) containing 1% cholesterol (Control group, 1); 1% cholesterol plus 1 mg/kg Lovastatin® (Merck, U.S.A.) (Lovastatin® group, 2); 1% cholesterol plus 0.1% tannin (3); 1% cholesterol plus 0.1% gallic acid (4); and 1% cholesterol plus 0.1% ellagic acid (5), respectively. RC4 diet comprises 7.6% moisture, 22.8% crude protein, 2.8% crude fat, 8.8% crude ash, 14.4% crude cellulose and 43.6% soluble nitrogen-free substances. Tannin, gallic acid and ellagic acid were purchased from Sigma Chemical Co. (St. Louis, Mo.).
(§2) The rabbits were fed for 6 weeks while being allowed free access to the diets and water.
(Step 5) Prevention of Hepatic Diseases

Data set [2] in a line: chemical analysis of blood of rabbits fed a high-cholesterol diet. It counts as in vivo, New Zealand White rabbits. The following applies: for TG (triglyceride): Control 56 ± 38; for TC (total cholesterol): Control 1143 ± 260. As to the method:
Effect of Tannin, Gallic acid or Ellagic acid in an Animal
(Step 1) Administration of tannin, gallic acid or ellagic acid to rabbits
as §1, §2
(Step 2) Chemical Analysis of Blood
After six weeks, the rabbits were anesthetized with an intramuscular injection of ketamine (50 mg/kg) in the femoral region and sacrificed. A blood sample was taken from the heart of each rabbit, allowed to stand for 2 hours and centrifuged at 3,000 rpm for 15 minutes and the supernatant serum was separated and stored in a freezer before use.
The chemical analysis of blood was carried out by employing a blood chemical analyzer (CIBA Corning 550 Express, USA) to determine the changes in GOT, GPT, γGTP, total cholesterol, HDL-cholesterol and triglyceride levels.

For the next data set, the target named is T1, HMG-CoA reductase (Rattus norvegicus, UniProt P51639).
T1 construct: from tissue; host or cells: rat liver microsomes
T1 sequence (P51639 1-887): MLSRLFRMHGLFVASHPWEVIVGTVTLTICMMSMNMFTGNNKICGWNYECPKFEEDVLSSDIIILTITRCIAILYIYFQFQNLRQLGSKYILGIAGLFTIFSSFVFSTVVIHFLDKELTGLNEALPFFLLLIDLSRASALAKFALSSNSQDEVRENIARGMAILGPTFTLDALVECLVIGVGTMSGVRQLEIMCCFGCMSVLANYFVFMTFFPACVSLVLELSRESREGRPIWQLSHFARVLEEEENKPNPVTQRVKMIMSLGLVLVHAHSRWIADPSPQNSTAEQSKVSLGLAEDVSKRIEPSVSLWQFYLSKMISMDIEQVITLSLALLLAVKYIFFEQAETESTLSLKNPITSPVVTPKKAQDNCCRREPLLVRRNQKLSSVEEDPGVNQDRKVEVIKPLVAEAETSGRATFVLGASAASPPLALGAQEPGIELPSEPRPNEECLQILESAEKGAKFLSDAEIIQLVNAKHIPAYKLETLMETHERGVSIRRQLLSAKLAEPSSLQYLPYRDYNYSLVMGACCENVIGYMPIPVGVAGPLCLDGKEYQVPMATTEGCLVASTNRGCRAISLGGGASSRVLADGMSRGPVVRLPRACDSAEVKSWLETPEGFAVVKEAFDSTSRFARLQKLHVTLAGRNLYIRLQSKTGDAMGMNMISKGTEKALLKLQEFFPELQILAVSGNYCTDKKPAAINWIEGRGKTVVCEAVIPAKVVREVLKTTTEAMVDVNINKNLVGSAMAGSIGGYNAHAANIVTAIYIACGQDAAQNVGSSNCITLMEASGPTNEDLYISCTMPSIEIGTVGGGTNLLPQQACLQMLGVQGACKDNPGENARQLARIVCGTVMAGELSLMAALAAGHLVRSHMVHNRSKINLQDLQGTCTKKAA
Put plainly: HMG-CoA reductase inhibition in liver microsomes of fed rats. It is filed as biochemical. The following applies: liver microsomes of rats fed 0.1% compound, vs Control. How it is done: Activity of tannin or gallic acid in HMG-CoA Reductase Inhibition
In order to determine the activity of HMG-CoA reductase, Hulcher's method was employed after some modification (see J. Lipid Res., 14, 625-641 (1973)). In this method, the concentration of the coenzyme-A (CoA-SH), which is produced when HMG-COA is reduced to a mevalonate salt by the action of HMG-COA reductase, is determined by spectroscopy and the activity of HMG-CoA reductase is calculated therefrom.
(Step 1) Preparation of microsomes
3 g of liver tissue taken from each group of rats of Example 2 was washed successively with 100 ml of a cold Saline (0.15M NaCl) and 100 ml of a cold buffer solution A (0.1M triethanolamine, HCl/0.2M EDTA/2 mM dithiothreitol (DTT)). The cold buffer solution A was added to the liver tissue in an amount of 2 ml per 1 g of the liver tissue and the mixture was homogenized with a homogenizer. […]
Then, the reactant was mixed with 20 μl of DTNB buffer solution (3mM DTNB/0.1M triethanolamine/0.2M EDTA, pH 7.4) and the absorbance of the mixture was determined at 412 nm to calculate the amount of CoA-SH (activity of HMG-COA reductase).
The extent of inhibition of HMG-CoA reductase activity by tannin and gallic acid were calculated based on the above result.

[3] abbreviates: rabbits, 1% cholesterol diet plus 0.1% compound (Lovastatin 1 mg/kg), 6 weeks.

`O=C(O)c1cc(O)c(O)c(O)c1` [Gallic acid, gallic acid]: in data set [1], the “A: Proportion of abnormal fat-containing liver cells (grade)” value turned out to be 2.7 ± 0.4 and the “inhibition of the formation of fatty liver” value is listed as “can significantly inhibit the formation of fatty liver”. For the same compound, the “effect on the liver function (adverse)” value in data set [2] (general statement) is recorded as “do not adversely affect on the liver function”. The γGTP in data set [2] (rabbits, 1% cholesterol diet plus 0.1% compound (Lovastatin 1 mg/kg), 6 weeks, Control 4.2 ± 0.9) was 7.0 ± 2 IU/l. In data set [2] (setting [3]), the “TG (triglyceride)” value came out at 27 ± 11 mg/dL and the “TC (total cholesterol)” value worked out at 1150 ± 100 mg/dL. Moreover, the GPT in data set [2] (rabbits, 1% cholesterol diet plus 0.1% compound (Lovastatin 1 mg/kg), 6 weeks, Control 65 ± 9) is 20 ± 10 IU/l. Further, in data set [2] (rabbits, 1% cholesterol diet plus 0.1% compound (Lovastatin 1 mg/kg), 6 weeks, Control 77 ± 8), the GOT came to 60 ± 9 IU/l. Also, the “lipid metabolism and liver function” value in data set [2] (rabbits, 6 weeks) is given as “can improve”. For the same compound, the “Inhibition of HMG-CoA reductase activity” value at HMG-CoA reductase is reported as 6.0%.
As to tannin, in data set [1], the “A: Proportion of abnormal fat-containing liver cells (grade)” value is reported as 2.7 ± 0.4 and the “inhibition of the formation of fatty liver” value was “significantly inhibit the formation of fatty liver”. For the same compound, the “effect on the liver function (adverse)” value in data set [2] (rabbit, in vivo) is recorded as “do not adversely affect on the liver function”. In data set [2] (setting [3]), the “TG (triglyceride)” value is 25 ± 10 mg/dL and the “TC (total cholesterol)” value came to 1120 ± 211 mg/dL. Moreover, in data set [2] (rabbits, 6 weeks), the “lipid metabolism and liver function” value is reported as “can improve”. Further, on HMG-CoA reductase, the “Inhibition of HMG-CoA reductase activity” value was 23.5%.
